Experimental data published in publication PMC10957775, “Integrated chemical characterization, metabolite profiling, and pharmacokinetics analysis of Zhijun Tangshen Decoction by UPLC-Q/TOF-MS” (Frontiers in Pharmacology, 2024).
Where two headings read alike, the source gives them in different places.

Key:
[1] = Multi-compound pharmacokinetics of ZJTSD in rat serum, semi-quantitative UPLC-Q/TOF-MS (peak area ratio versus time, non-compartmental); details: for pharmacokinetic behavior compared with other prototype compounds and metabolites (in words): non-compartmental analysis; for AUC (in words): peak area ratio versus time
Description: Thirty male Sprague–Dawley rats (200 ± 20 g) were purchased from the Nanjing Qinglongshan Experimental Animal Center (Nanjing, China). […] All rats were divided randomly into two groups: ZJTSD-dosed group (n = 27) and control group (n = 3). The ZJTSD-dosed group was given the ZJTSD solution by gavage (i.g.) at a dosage of 1 mL/100 g body weight of rats, and the control group was given 0.9% normal saline at the same dose, twice a day for a week. After the last administration, the blood was collected from the hepatic portal vein at 15 min, 30 min, 1 h, 2 h, 4 h, 6 h, 8 h, 12 h, and 24 h, and 3 rats were taken at each time point.
The blood samples of rats were centrifuged at 4,000 rpm for 10 min to obtain the serum. The serum sample (1 mL) was processed with a 3-fold volume using methanol for protein precipitation, with epicoprostanol serving as the internal standard (digoxin and clarithromycin). After vortexing for 3 min, the mixture was centrifuged at 18,000 rpm for 10 min. Subsequently, the supernatant was evaporated at 45°C using a vacuum concentrator. After evaporating the solvent, 150 μL of methanol/water (1:1, v/v) was added, vortexed, sonicated, and then centrifuged at 18,000 rpm for 10 min at 4°C. The resulting supernatant was used for further analysis.
Liquid chromatographic separation was performed using an AB SCIEX LC™ 2.0 system (AB SCIEX, United States) fitted with an Acquity UPLC BEH C18 column (100 mm × 2.1 mm, 1.7 μm; Ireland). The mobile phases in negative and positive ion modes consisted of 0.1% FA aqueous solution (A) and acetonitrile containing 0.1% FA (B). The program of the elution gradient was set as follows: 0∼5 min, 2%∼35 %B; 5∼7 min, 35%∼50%; 7∼10 min, 50%∼70%; 10∼15 min, 70%∼90 %B; 15∼18 min, 90%∼90 %B; 18∼18.5 min, 90%∼2 %B; and 18.5∼20 min, 2%∼2 %B. The injection volume was 3 µL. The flow rate and the column temperature were set at 0.3 mL/min and 40°C, respectively.
The mass spectrometry analysis was performed on a SCIEX ZenoTOF™ 7600 system (AB SCIEX, United States), which was calibrated in the high-sensitivity mode for every 10 samples. Spectra were acquired in the TOF/MS-IDA-TOF MS/MS mode with the ESI source operating in positive and negative ion modes. MS parameters were set as follows: ionization source, ESI; spray voltage, 5,500 kV/–4,500 kV; collision energy, 40 V/–40 V; declustering potential, 80 V/–80 V; ion source temperature, 550°C; and scan range, 100–1250 m/z. Data acquisition and processing were performed using SCIEX OS 2.2 and PeakView 2.2.
A semi-quantitative method was adopted based on the correction peak area versus time ([Wang et al., 2011]; [Lin et al., 2019]). The mean serum time-course profile of pharmacokinetics based on the peak area ratio versus time was plotted using Origin 2018. The kinetic analysis of the peak area ratio (×1,000)–time curve was calculated using Phoenix WinNonlin 8.1 (Phoenix, American) software and illustrated.

[2] = design: AUC(0→t) / Cmax: unit not given beside the values; details: rat, in vivo
[3] = prototype compounds of ZJTSD absorbed into rat serum, mean±SD, n=3, in h
[4] = male, Sprague-Dawley, rat, serum (hepatic portal vein blood), po, 1 mL/100 g body weight
[5] = male, Sprague-Dawley, rat, serum (hepatic portal vein blood), po, 1 mL/100 g body weight, t1/2, prototype compounds of ZJTSD absorbed into rat serum, mean±SD, n=3
[6] = male, Sprague-Dawley, rat, serum (hepatic portal vein blood), po, 1 mL/100 g body weight, elimination half-life (t1/2), rat hepatic portal vein serum after oral ZJTSD, semi-quantitative peak area ratio
[7] = metabolites of ZJTSD in rat serum, mean±SD, n=3, in h
[8] = male, Sprague-Dawley, rat, serum (hepatic portal vein blood), po, 1 mL/100 g body weight, t1/2, metabolites of ZJTSD in rat serum, mean±SD, n=3

| SMILES | MRT last [1, 4] | Tmax [1, 4] | half-life [1, 5] | further results |
| --- | --- | --- | --- | --- |
| O=C1CCCn2c(CO)ccc21 [P34, Polygonatine A] |  |  |  | MRT(0→t) [1, 3]: 3.96±0.32; t1/2 [1, 3]: 3.76±1.03 |
| Cc1cc2c(cc1O)C(=O)c1ccccc1C2=O [P11, 2-Methyl-3-hydroxyanthraquinone] | 3.23 ± 0.59 h | 0.67 ± 0.29 h | 4.29 ± 2.71 h | level of exposure in the blood (in words) ([1]; rat serum after oral ZJTSD): higher level of exposure; pharmacokinetic behavior compared with other prototype compounds and metabolites (in words) ([1]; rat serum after oral ZJTSD): better pharmacokinetic behavior |
| CCCCCCCCCCCCCCCCOC[C@@H](O)COP(=O)([O-])OCC[N+](C)(C)C [P44, 1-O-Hexadecyl-sn-glycero-3-phosphocholine] | 11.9 ± 0.91 h | 0.58 ± 0.38 h | 33.1 ± 13.3 h |  |
| O=C(O)CC(O)(CC(=O)O)C(=O)O [P40, Citric acid] | 9.56 ± 1.76 h | 3.33 ± 1.16 h | 24.7 ± 23.6 h | MRT [1, 4]: 9.56 h; half-life [1, 6]: 21 h; AUC (in words) ([1]; rat serum after oral ZJTSD): largest |
| COc1cc2c(=O)c(-c3ccc(O)cc3)coc2cc1O[C@@H]1O[C@H](CO)[C@@H](O)[C@H](O)[C@H]1O [P9, Glycitin] |  |  |  | AUC(0→t) [2]: 1.99±0.28; Cmax [2]: 0.80±0.39; MRT(0→t) [2]: 4.70±1.01; Tmax [2]: 0.92±0.95; t1/2 [2]: 3.56±1.89 |
| O=C(O)/C=C/c1ccccc1 [P36, Cinnamic acid] | 5.15 ± 0.25 h | 1.58 ± 2.1 h | 25.8 ± 26.4 h |  |
| COc1c(O)ccc2c1C(=O)c1ccccc1C2=O [P14, 2-Hydroxy-1-methoxyanthraquinone] | 4.24 ± 0.57 h | 0.67 ± 0.29 h | 3.5 ± 2.06 h | level of exposure in the blood (in words) ([1]; rat serum after oral ZJTSD): higher level of exposure; pharmacokinetic behavior compared with other prototype compounds and metabolites (in words) ([1]; rat serum after oral ZJTSD): better pharmacokinetic behavior |
| CC(CO)C1=C(O)c2ccc3c(c2C(=O)C1=O)CCCC3(C)C (stereo not shown) [P31, Tanshinone V] |  |  |  | AUC(0→t) [2]: 269.12±44.99; Cmax [2]: 44.36±4.60; MRT(0→t) [2]: 5.85±0.84; Tmax [2]: 5.33±2.31; t1/2 [2]: 7.21 |
| COC(=O)c1ccc(O)cc1 [M89] |  |  |  | MRT(0→t) [1, 7]: 5.35±0.92; Tmax [1, 7]: 3.00±1.73 |
| O=C1C[C@@H](c2ccc(O)cc2)Oc2cc(O)ccc21 [M18] |  |  |  | detection in serum / absorbed form ([2]; po): detected in vivo |
| COc1cc(-c2coc3cc(O)ccc3c2=O)ccc1O [P10, 7,4'-Dihydroxy-3'-methoxyisoflavone] | 10.8 ± 0.72 h | 2.08 ± 1.88 h | 67.3 ± 4.4 h |  |
| O=C1C[C@@H](c2ccc(O[C@@H]3O[C@H](CO)[C@@H](O)[C@H](O)[C@H]3O)cc2)Oc2cc(O)ccc21 [liquiritin] |  |  |  | detection in serum / absorbed form ([2]; po): not detected in the serum |
| O=c1ccc2cc(O)c(O)cc2o1 [P39, Esculetin] | 4.92 ± 0.8 h | 0.33 ± 0.14 h | 4.4 ± 3.9 h |  |
| Cc1cc(O)c2c(c1)C(=O)c1ccccc1C2=O [M63] |  |  |  | half-life [1, 8]: 5.43 ± 2.61 h |
| CCCCCCCCCCCCCCCCCC(=O)OC[C@@H](O)COP(=O)([O-])OCC[N+](C)(C)C [P45, 1-O-Octadecanoyl-sn-glycero-3-phosphocholine] | 9.91 ± 0.56 h | 2 h | 21.9 ± 6.81 h | MRT [1, 4]: 9.91 h; half-life [1, 6]: 21 h; pharmacokinetic behavior compared with other prototype compounds and metabolites (in words) ([1]; rat serum after oral ZJTSD): better pharmacokinetic behavior |
| C[N+](C)(C)CCOP(=O)([O-])OCC(O)COCCCCCCCCCCCCCCC=O (stereo not shown) [M99] |  |  |  | Tmax ([2]; po): ≤ 3.5 h; elimination half-life (t1/2) ([2]; po): > 7.5 h; pharmacokinetic behavior compared with other prototype compounds and metabolites (in words) ([2]; po): better pharmacokinetic behavior |
| O=C(CCc1ccc(O)cc1)c1ccc(O)cc1O [M11] |  |  |  | half-life [1, 8]: 7.01 ± 2.29 h |
| O=C(O)c1cc2c(cc1O)C(=O)c1ccccc1C2=O [M28] |  |  |  | AUC (in words) ([2]; po): greater; Tmax ([2]; po): ≤ 3.5 h; elimination half-life (t1/2) ([2]; po): less than 4 h; pharmacokinetic behavior compared with other prototype compounds and metabolites (in words) ([2]; po): better pharmacokinetic behavior |

| SMILES | MRT last [1, 4] | Tmax [1, 4] | half-life [1, 5] | further results |
| --- | --- | --- | --- | --- |
| O=C1c2ccccc2C(=O)c2ccccc21 [M52] |  |  |  | AUC (in words) ([2]; po): greater; Cmax / peak concentration (in words) ([2]; po): higher peak concentrations; Tmax ([2]; po): > 4 h; pharmacokinetic behavior compared with other prototype compounds and metabolites (in words) ([2]; po): better pharmacokinetic behavior |
| COc1c(O)c(C)cc2c1C(=O)c1ccc(O)cc1C2=O [P21, 2,6-Dihydroxy-1-methoxy-3-methylanthraquinone] | 4.27 ± 0.55 h | 2.5 ± 3.04 h | 3.45 ± 1.44 h |  |
| O=C(O)C=Cc1ccc(O)cc1 [P37, p-Coumaric acid] | 3.97 ± 0.59 h | 1.58 ± 2.1 h | 3.23 ± 0.95 h | level of exposure in the blood (in words) ([1]; rat serum after oral ZJTSD): higher level of exposure; pharmacokinetic behavior compared with other prototype compounds and metabolites (in words) ([1]; rat serum after oral ZJTSD): better pharmacokinetic behavior |
| O=C(O)c1cc(O)c2c(c1)C(=O)c1cccc(O)c1C2=O [P18, Rhein] | 3.55 ± 0.57 h | 1.67 ± 2.02 h | 4.7 ± 0.9 h | detection in serum / absorbed form ([1]; rat serum after oral ZJTSD): absorbed as prototype compounds |
| CC(=O)CCc1ccc(OS(=O)(=O)O)cc1 [M85] |  |  |  | AUC (in words) ([2]; po): greater; Tmax ([2]; po): ≤ 3.5 h; elimination half-life (t1/2) ([2]; po): less than 4 h; pharmacokinetic behavior compared with other prototype compounds and metabolites (in words) ([2]; po): better pharmacokinetic behavior |
| Cc1cc(O)cc2oc(CC(C)O)cc(=O)c12 (stereo not shown) [P2, 7-Hydroxy-2-(2-hydroxypropyl)-5-methylchromen-4-one] | 3.45 ± 0.58 h | 0.67 ± 0.29 h | 2.17 ± 0.12 h | level of exposure in the blood (in words) ([1]; rat serum after oral ZJTSD): higher level of exposure; pharmacokinetic behavior compared with other prototype compounds and metabolites (in words) ([1]; rat serum after oral ZJTSD): better pharmacokinetic behavior |
| O=C(O)/C=C/c1ccc(O)cc1 [M91] |  |  |  | MRT(0→t) [1, 7]: 3.97±0.59; Tmax [1, 7]: 1.58±2.10; t1/2 [1, 7]: 3.23±0.95 |
| OC1COCC1O (stereo not shown) [M87] |  |  |  | MRT(0→t) [1, 7]: 9.59±1.35; Tmax [1, 7]: 1.17±0.76; t1/2 [1, 7]: 17.68±16.89 |
| COc1c(-c2ccccc2)oc2cc(O)cc(O)c2c1=O [P3, 3-Methoxy-5,7-dihydroxyflavone] | 4.8 ± 0.38 h | 1.83 ± 1.89 h | 4.04 ± 1.91 h |  |
| O=C1c2ccccc2C(=O)c2cc(CO)c(O)cc21 [P15, 2-Hydroxy-3-hydroxymethylanthraquinone] | 4.81 ± 0.31 h | 1.67 ± 2.02 h |  |  |
| C[N+](C)(C)CC(=O)O [P35, Betaine] | 10.8 ± 0.64 h | 6.67 ± 4.62 h | 24.2 ± 14.5 h |  |
| CC1CCC2(C(=O)O)CCC3(C)C(=CCC4C5(C=O)CC(O)C(O)C(C)(C)C5CCC43C)C2C1(C)O (stereo not shown) [M77] |  |  |  | half-life [1, 8]: 10.8 ± 4.71 h |
| CSCC[C@H](N)C(=O)O [P25, L-Methionine] | 12.5 ± 1.36 h | 2.17 ± 3.32 h |  |  |
| C=Cc1ccc(O)c(OC)c1 [P42, 4-Vinyl-2-methoxyphenol] | 10.2 ± 0.64 h | 10.7 ± 2.31 h |  |  |
| O=CCC(O)(CC(=O)O)C(=O)O (stereo not shown) [M90] |  |  |  | MRT(0→t) [1, 7]: 7.25±1.46; Tmax [1, 7]: 1.08±0.88; t1/2 [1, 7]: 7.50±1.85; Tmax ([1]; rat hepatic portal vein serum after oral ZJTSD twice a day for a week, semi-quantitative peak area ratio): ≤ 3.5 h; elimination half-life (t1/2) ([1]; rat hepatic portal vein serum after oral ZJTSD, semi-quantitative peak area ratio): > 7.5 h; time to peak (in words) ([1]; rat serum after oral ZJTSD): faster time to peak; pharmacokinetic behavior compared with other prototype compounds and metabolites (in words) ([1]; rat serum after oral ZJTSD): better pharmacokinetic behavior; AUC (in words) ([1]; rat serum after oral ZJTSD): greater |
| O=C(O)c1ccc(O)cc1 [P41, p-Hydroxybenzoic acid] | 9.15 ± 0.95 h | 2.75 ± 2.17 h | 19.4 ± 2.9 h | pharmacokinetic behavior compared with other prototype compounds and metabolites (in words) ([1]; rat serum after oral ZJTSD): better pharmacokinetic behavior |
| O=C1c2cccc(O)c2C(=O)c2c(O)cc(CO)cc21 [P17, Aloe-emodin] | 5.2 ± 3.03 h | 4.17 ± 3.75 h | 1.73 h | detection in serum / absorbed form ([1]; rat serum after oral ZJTSD): absorbed as prototype compounds |

Further lines, with some results ahead:

| MRT last [1, 4] | Tmax [1, 4] | half-life [1, 5] | SMILES | further results |
| --- | --- | --- | --- | --- |
| 4.2 ± 0.25 h | 4.67 ± 1.16 h |  | CC(=O)/C=C/c1ccc(CO)o1 [P51, (E)-4-[5-(Hydroxymethyl)-2-furanyl]-3-butene-2-one] |  |
| 11.1 ± 0.44 h | 0.5 h | 47.1 ± 35.8 h | O=C(O)[C@@H]1CCCN1 [P26, Proline] |  |
| 13.9 ± 1.35 h | 14 ± 9.17 h |  | COC(=O)C1CCC(=O)N1 (stereo not shown) [P33, 5-Oxo-pyrrolidine-2-carboxylic acid methyl ester] |  |
| 12.1 ± 0.02 h | 4.75 ± 4.02 h |  | COc1cc(C)c2c(=O)cc(C)oc2c1 [P6, 2,5-Dimethyl-7-methoxychromone] |  |
| 3.43 ± 0.76 h | 0.67 ± 0.29 h | 2.7 ± 0.14 h | Cc1cc(=O)c2c(C)cc(O)cc2o1 [P1, 2,5-Dimethyl-7-hydroxychromone] | level of exposure in the blood (in words) ([1]; rat serum after oral ZJTSD): higher level of exposure; pharmacokinetic behavior compared with other prototype compounds and metabolites (in words) ([1]; rat serum after oral ZJTSD): better pharmacokinetic behavior |
| 4.36 ± 1.52 h | 0.5 h | 4.77 ± 1.43 h | COc1cc2ccc(=O)oc2cc1O [P38, Scopoletin] |  |
| 12.7 ± 0.3 h | 12.1 ± 11.9 h |  | O=Cc1c[nH]c2ccccc12 [P46, Indole-3-carbaldehyde] |  |
| 5.29 ± 0.3 h | 1.67 ± 2.02 h | 3.14 ± 0.86 h | Cc1cc(=O)c2c(CC(=O)O)cc(O)cc2o1 [P4, 2-Methyl-5-carboxymethyl-7-hydroxychromone] |  |
| 12.4 ± 0.14 h | 1.08 ± 0.88 h |  | N[C@@H](Cc1c[nH]c2ccccc12)C(=O)O [P23, Tryptophan] |  |
| 4.23 ± 0.55 h | 0.67 ± 0.29 h | 3.09 ± 0.19 h | CC(=O)Cc1cc(O)cc2oc(C)cc(=O)c12 [P5, 2-Methyl-5-acetonyl-7-hydroxychromone] |  |
| 11.8 ± 0.21 h | 12 h |  | O=C1CCCCN1 [P47, 2-Piperidone] |  |
| 9.9 ± 0.35 h | 2.75 ± 2.95 h | 21.1 ± 10.2 h | N[C@@H](Cc1c[nH]cn1)C(=O)O [P24, Histidine] |  |
